Experimental data published in PMC11576293, “New series of 4,6-diaryl pyrimidines: facile synthesis and antiproliferative activity as dual EGFR/VEGFR-2 inhibitors” (Frontiers in Chemistry, 2024).

Experiments:
OVCAR-8 = assay: NCI-60 single-dose screen; type: cell-based; conditions: Homo sapiens, single dose 10 µM, '-' = no inhibition, read-out: % Growth Inhibition
Experimental: (§1) The National Cancer Institute’s Developmental Therapeutic Program (www.dtp.nci.nih.gov) has tested compounds 9–29 (except compounds 21 and 22) against 60 cancer cell lines from nine types (leukemia, lung, colon, CNS, melanoma, ovarian, renal, prostate, and breast cancer) at a single dose (10 μM) ([El-Sherief et al., 2018]). […] The most sensitive cells included leukemia (SR, K-562, and MOLT-4), lung (NCI-H522, […], and EKVX), breast (MCF-7 and T-47D), colon (HCT-15 and HT-29), and ovarian (NCI/ADR-RES).
(§2) The National Cancer Institute’s Developmental Therapeutic Program (www.dtp.nci.nih.gov) evaluated compounds 9–29 (excluding 21 and 22) against 60 cancer cell lines from nine categories (leukemia, lung, colon, CNS, melanoma, ovarian, renal, prostate, and breast cancer) at a single dose (10 μM) ([El-Sherief et al., 2018]). See Supplementary Material A1 for more details.

A498 = assay: NCI-60 single-dose screen; type: cell-based; conditions: Homo sapiens, single dose 10 µM, '-' = no inhibition, read-out: % Growth Inhibition
Experimental: as §1, §2

PC-3 = assay: NCI-60 single-dose screen; type: cell-based; conditions: Homo sapiens, single dose 10 µM, '-' = no inhibition, read-out: % Growth Inhibition
Experimental: as §1, §2

BT-549 = assay: NCI-60 single-dose screen; type: cell-based; conditions: Homo sapiens, single dose 10 µM, '-' = no inhibition, read-out: % Growth Inhibition
Experimental: as §1, §2

SF-539 = assay: NCI-60 single-dose screen; type: cell-based; conditions: Homo sapiens, single dose 10 µM, '-' = no inhibition, read-out: % Growth Inhibition
Experimental: as §1, §2

NCI-H322M = assay: NCI-60 single-dose screen; type: cell-based; conditions: Homo sapiens, single dose 10 µM, '-' = no inhibition, read-out: % Growth Inhibition
Experimental: as §1, §2

SR = assay: NCI-60 single-dose screen; type: cell-based; conditions: Homo sapiens, single dose 10 µM, '-' = no inhibition, read-out: % Growth Inhibition
Experimental: as §1, §2

TK-10 = assay: NCI-60 single-dose screen; type: cell-based; conditions: Homo sapiens, single dose 10 µM, '-' = no inhibition, read-out: % Growth Inhibition
Experimental: as §1, §2

HL-60(TB) = assay: NCI-60 single-dose screen; type: cell-based; conditions: Homo sapiens, single dose 10 µM, '-' = no inhibition, read-out: % Growth Inhibition
Experimental: as §1, §2

SF-268 = assay: NCI-60 single-dose screen; type: cell-based; conditions: Homo sapiens, single dose 10 µM, '-' = no inhibition, read-out: % Growth Inhibition
Experimental: as §1, §2

IGROV1 = assay: NCI-60 single-dose screen; type: cell-based; conditions: Homo sapiens, IGROV-1, single dose 10 µM, '-' = no inhibition, read-out: % Growth Inhibition
Experimental: as §1, §2

RPMI-8226 = assay: NCI-60 single-dose screen; type: cell-based; conditions: Homo sapiens, single dose 10 µM, '-' = no inhibition, read-out: % Growth Inhibition
Experimental: as §1, §2

MDA-MB-435 = assay: NCI-60 single-dose screen; type: cell-based; conditions: Homo sapiens, single dose 10 µM, '-' = no inhibition, read-out: % Growth Inhibition
Experimental: as §1, §2

NCI-H23 = assay: NCI-60 single-dose screen; type: cell-based; conditions: Homo sapiens, single dose 10 µM, '-' = no inhibition, read-out: % Growth Inhibition
Experimental: as §1, §2

SF-295 = assay: NCI-60 single-dose screen; type: cell-based; conditions: Homo sapiens, single dose 10 µM, '-' = no inhibition, read-out: % Growth Inhibition
Experimental: as §1, §2

NCI-H460 = assay: NCI-60 single-dose screen; type: cell-based; conditions: Homo sapiens, single dose 10 µM, '-' = no inhibition, read-out: % Growth Inhibition
Experimental: as §1, §2

ACHN 1 = assay: NCI-60 single-dose screen; type: cell-based; conditions: Homo sapiens, single dose 10 µM, '-' = no inhibition, read-out: % Growth Inhibition
Experimental: as §1, §2

SK-OV-3 = assay: NCI-60 single-dose screen; type: cell-based; conditions: Homo sapiens, single dose 10 µM, '-' = no inhibition, read-out: % Growth Inhibition
Experimental: as §1, §2

CAKI-1 = assay: NCI-60 single-dose screen; type: cell-based; conditions: Homo sapiens, single dose 10 µM, '-' = no inhibition, read-out: % Growth Inhibition
Experimental: as §1, §2

EKVX = assay: NCI-60 single-dose screen; type: cell-based; conditions: Homo sapiens, single dose 10 µM, '-' = no inhibition, read-out: % Growth Inhibition
Experimental: as §1, §2

K-562 = assay: NCI-60 single-dose screen; type: cell-based; conditions: Homo sapiens, K562, single dose 10 µM, '-' = no inhibition, read-out: % Growth Inhibition
Experimental: as §1, §2

HCT-15 = assay: NCI-60 single-dose screen; type: cell-based; conditions: Homo sapiens, single dose 10 µM, '-' = no inhibition, read-out: % Growth Inhibition
Experimental: as §1, §2

NCI/ADR-RES = assay: NCI-60 single-dose screen; type: cell-based; conditions: Homo sapiens, single dose 10 µM, '-' = no inhibition, read-out: % Growth Inhibition
Experimental: as §1, §2

MCF7 = assay: NCI-60 single-dose screen; type: cell-based; conditions: Homo sapiens, single dose 10 µM, '-' = no inhibition, read-out: % Growth Inhibition
Experimental: as §1, §2

SNB-75 = assay: NCI-60 single-dose screen; type: cell-based; conditions: Homo sapiens, single dose 10 µM, '-' = no inhibition, read-out: % Growth Inhibition
Experimental: as §1, §2

HT29 = assay: NCI-60 single-dose screen; type: cell-based; conditions: Homo sapiens, HT-29, single dose 10 µM, '-' = no inhibition, read-out: % Growth Inhibition
Experimental: as §1, §2

LOX IMVI = assay: NCI-60 single-dose screen; type: cell-based; conditions: Homo sapiens, single dose 10 µM, '-' = no inhibition, read-out: % Growth Inhibition
Experimental: as §1, §2

RXF 393 = assay: NCI-60 single-dose screen; type: cell-based; conditions: Homo sapiens, single dose 10 µM, '-' = no inhibition, read-out: % Growth Inhibition
Experimental: as §1, §2

UACC-257 = assay: NCI-60 single-dose screen; type: cell-based; conditions: Homo sapiens, single dose 10 µM, '-' = no inhibition, read-out: % Growth Inhibition
Experimental: as §1, §2

CCRF-CEM = assay: NCI-60 single-dose screen; type: cell-based; conditions: Homo sapiens, single dose 10 µM, '-' = no inhibition, read-out: % Growth Inhibition
Experimental: as §1, §2

NCI-H522 = assay: NCI-60 single-dose screen; type: cell-based; conditions: Homo sapiens, single dose 10 µM, '-' = no inhibition, read-out: % Growth Inhibition
Experimental: as §1, §2

MDA-MB231/ATCC = assay: NCI-60 single-dose screen; type: cell-based; conditions: Homo sapiens, MDA-MB-231, single dose 10 µM, '-' = no inhibition, read-out: % Growth Inhibition
Experimental: as §1, §2

MOLT-4 = assay: NCI-60 single-dose screen; type: cell-based; conditions: Homo sapiens, single dose 10 µM, '-' = no inhibition, read-out: % Growth Inhibition
Experimental: as §1, §2

KM12 = assay: NCI-60 single-dose screen; type: cell-based; conditions: Homo sapiens, single dose 10 µM, '-' = no inhibition, read-out: % Growth Inhibition
Experimental: as §1, §2

SN12C = assay: NCI-60 single-dose screen; type: cell-based; conditions: Homo sapiens, single dose 10 µM, '-' = no inhibition, read-out: % Growth Inhibition
Experimental: as §1, §2

DU-145 = assay: NCI-60 single-dose screen; type: cell-based; conditions: Homo sapiens, single dose 10 µM, '-' = no inhibition, read-out: % Growth Inhibition
Experimental: as §1, §2

OVCAR-3 = assay: NCI-60 single-dose screen; type: cell-based; conditions: Homo sapiens, single dose 10 µM, '-' = no inhibition, read-out: % Growth Inhibition
Experimental: as §1, §2

SK-MEL-28 = assay: NCI-60 single-dose screen; type: cell-based; conditions: Homo sapiens, single dose 10 µM, '-' = no inhibition, read-out: % Growth Inhibition
Experimental: as §1, §2

UO-31 = assay: NCI-60 single-dose screen; type: cell-based; conditions: Homo sapiens, single dose 10 µM, '-' = no inhibition, read-out: % Growth Inhibition
Experimental: as §1, §2

SW-620 = assay: NCI-60 single-dose screen; type: cell-based; conditions: Homo sapiens, single dose 10 µM, '-' = no inhibition, read-out: % Growth Inhibition
Experimental: as §1, §2

SNB-19 = assay: NCI-60 single-dose screen; type: cell-based; conditions: Homo sapiens, single dose 10 µM, '-' = no inhibition, read-out: % Growth Inhibition
Experimental: as §1, §2

M14 = assay: NCI-60 single-dose screen; type: cell-based; conditions: Homo sapiens, single dose 10 µM, '-' = no inhibition, read-out: % Growth Inhibition
Experimental: as §1, §2

HCC-2998 = assay: NCI-60 single-dose screen; type: cell-based; conditions: Homo sapiens, single dose 10 µM, '-' = no inhibition, read-out: % Growth Inhibition
Experimental: as §1, §2

UACC-62 = assay: NCI-60 single-dose screen; type: cell-based; conditions: Homo sapiens, single dose 10 µM, '-' = no inhibition, read-out: % Growth Inhibition
Experimental: as §1, §2

MDA-MB-468 = assay: NCI-60 single-dose screen; type: cell-based; conditions: Homo sapiens, single dose 10 µM, '-' = no inhibition, read-out: % Growth Inhibition
Experimental: as §1, §2

SK-MEL-2 = assay: NCI-60 single-dose screen; type: cell-based; conditions: Homo sapiens, single dose 10 µM, '-' = no inhibition, read-out: % Growth Inhibition
Experimental: as §1, §2

MALME-3M = assay: NCI-60 single-dose screen; type: cell-based; conditions: Homo sapiens, single dose 10 µM, '-' = no inhibition, read-out: % Growth Inhibition
Experimental: as §1, §2

`COc1ccc(-c2cc(-c3ccc(Cl)cc3)nc(SC)n2)cc1OC` [Compound 23, 4-(4-Chlorophenyl)-6-(3,4-dimethoxyphenyl)-2-(methylthio)pyrimidine] gave an inhibition at 10 µM (OVCAR-8) of 3.78%, an inhibition at 10 µM (A498) of under 0% and an inhibition at 10 µM (PC-3) of 15.7%. The inhibition at 10 µM (BT-549) was 4.8%, the inhibition at 10 µM (SF-539) was 15.7% and the inhibition at 10 µM (NCI-H322M) was under 0%. The inhibition at 10 µM (SR) was 34%, the inhibition at 10 µM (TK-10) was under 0% and the inhibition at 10 µM (HL-60(TB)) was 18.4%. It also gave an inhibition at 10 µM (SF-268) of 11.5%, an inhibition at 10 µM (IGROV1) of under 0% and an inhibition at 10 µM (RPMI-8226) of 20.1%. It also gave an inhibition at 10 µM (MDA-MB-435) of 18%, an inhibition at 10 µM (NCI-H23) of 7.41% and an inhibition at 10 µM (SF-295) of 12.4%. For the same compound, the inhibition at 10 µM (NCI-H460) was 11.4%, the inhibition at 10 µM (ACHN 1) was 9.14% and the inhibition at 10 µM (SK-OV-3) was 2.94%. The inhibition at 10 µM (CAKI-1) was 24%, the inhibition at 10 µM (EKVX) was 23.1% and the inhibition at 10 µM (K-562) was 39%. The inhibition at 10 µM (HCT-15) was 28%, the inhibition at 10 µM (NCI/ADR-RES) was 14.9% and the inhibition at 10 µM (MCF7) was 23.9%. It also gave an inhibition at 10 µM (SNB-75) of under 0%, an inhibition at 10 µM (HT29) of 26.4% and an inhibition at 10 µM (LOX IMVI) of 15%. The inhibition at 10 µM (RXF 393) was under 0%, the inhibition at 10 µM (UACC-257) was 10% and the inhibition at 10 µM (CCRF-CEM) was 17.9%. It also gave an inhibition at 10 µM (NCI-H522) of 31.2%, an inhibition at 10 µM (MDA-MB231/ATCC) of 23.2% and an inhibition at 10 µM (MOLT-4) of 26.7%. For the same compound, the inhibition at 10 µM (KM12) was 25.4%, the inhibition at 10 µM (SN12C) was 20.2% and the inhibition at 10 µM (DU-145) was 9.83%. For the same compound, the inhibition at 10 µM (OVCAR-3) was under 0%, the inhibition at 10 µM (SK-MEL-28) was 8.87% and the inhibition at 10 µM (UO-31) was 22.9%. For the same compound, the inhibition at 10 µM (SW-620) was 1.5%, the inhibition at 10 µM (SNB-19) was 3.67% and the inhibition at 10 µM (M14) was 0.3%. For the same compound, the inhibition at 10 µM (HCC-2998) was under 0%, the inhibition at 10 µM (UACC-62) was under 0% and the inhibition at 10 µM (MDA-MB-468) was 6.77%. For the same compound, the inhibition at 10 µM (SK-MEL-2) was 8.95%, the inhibition at 10 µM (MALME-3M) was under 0% and the melting point was 228 to 229 °C.
